Results from US20080255244A1, “CaM Kinase II Inhibitor Improves Retinoic Acid Therapy and Inhibits the Proliferation of Myeloid Leukemia Cells” (Fred Hutchinson Cancer Research Center, priority 2007, published 2008).
pIC50: −log10 of the molar value.

How the values were obtained:
[1] = tested on: autophosphorylated CaMKIIγ in HL60 cells; test: Western blot of CaMKIIγ autophosphorylation in HL60 cells; type: cell-based, human; conditions: for activated, autophosphorylated CaMKIIγ level: phospho-T286/7 antibody, ATRA 1 μM, TPA 0.1 μM
Protocol: (§1) FIG. 7. KN-62 regulates the differentiation of myeloid leukemia cell lines. (A) Wright Giemsa-stained HL-60 cells either (a) uninduced or treated for five days with (b) KN62 or (c) ATRA. (d) CD11b expression in HL-60 cells after five days exposure to KN62 (5 μM) or ATRA (1 μM). (B) Wright-Giemsa stained NB4 cells treated for five days with KN-62 (5 μM) and ATRA as indicated. […] (C) Cd11b expression of NB4 cells treated for five days with the indicated concentrations of RA and/or KN-62. (D) Western blots with the indicated antibodies were performed on HL60 cell lysates following incubation with KN62 for the indicated period of time. (E) Western blots of NB4 cell lysates following a five day incubation with the indicated compounds.
(§2) FIG. 9. Terminal differentiation/apoptosis of myeloid leukemia cells is associated with decreased CaMKIIγ activation. (A) Lysates from the HL60, NB4 and U937 myeloid cell lines treated with ATRA (1 μM) for the indicated period of time were subjected to Western blots. (B) Lysates from the indicated myeloid cell lines treated for five days with the indicated concentration of ATRA were subjected to Western blots. (C) Lysates from HL60 cells treated with TPA (0.1 μM) for the indicated time were subjected to Western blots. (D) Lysates from NB4 cells treated with arsenic trioxide (1 uM) for the indicated time were subjected to Western blots.
(§3) Protein extracts, Western blotting and co-immunoprecipitations. Westerns and co-immunoprecipitations were performed as previously detailed (Si, J., and Collins, S. J., Blood 100:4401-4409 (2002)).
(§4) Antibodies and Western blots. Protein extracts, immunoprecipitations and Western blots were performed as previously detailed (Si J, Collins S J. IL-3-induced enhancement of retinoic acid receptor activity is mediated through Stat5, which physically associates with retinoic acid receptors in an IL-3-dependent manner. Blood 100: 4401-9 (2002)). Antibodies against CaMKI, CaMKIIγ, CaMKIV, c-myc, Stat3, Stat5, calmodulin, as well as the phosphospecific CaMKII (T286, 287) and phosphospecific CaMKI (T177) antibodies were from Santa Cruz Biotechnology. Antibodies against phospho-Stat1 (Ser727), phospho-Stat3 (Ser727 and Tyr 705), phospho-Stat5 (Tyr 694), phospho-p44/42 MAP kinase (Thr202/Tyr 204), p44/42 MAP kinase, phospho-p38 MAP kinase (Thr 180/Tyr 182), phospho-GSK3β (Ser9) were from Cell Signaling Technology. Antibodies against Stat1, GSK3β, β-catenin, PP2Ac, and cyclin D1 were from BD Biosciences.

[2] = tested on: autophosphorylated CaMKIIγ in K562 cells; test: Western blot of CaMKIIγ autophosphorylation in K562 cells; type: cell-based, human; conditions: gleevec 5 uM, ATRA five days
Protocol: as §2
FIG. 10. Inhibiting bcr-abl activity/expression inhibits CaMKIIγ activation. (A) Lysates from K562 cells undergoing growth arrest following treatment with gleevec (5 uM) for the indicated times were subjected to Western blots. (B) Lysates from TonB210.1 cells depleted of doxycycline for the indicated period of time were subjected to Western blots. (C) IL-3 dependent TonB210.1 cells were deprived of IL-3 for 24 hours (lane 1). The cells were then treated with the indicated compounds simultaneously with the addition of doxycycline (lanes 2-8). After 24 hours cell lysates were harvested and subjected to Western blots with the indicated CaMKII antibodies. (D) K562 cells were cultured for 48 hours with the indicated chemical inhibitors of specific signal transduction pathways. Cell lysates were harvested and subjected to Western blot analysis.
FIG. 12. CaMKII regulates multiple signal transduction pathways in myeloid cells. (A,B) Lysates from K562 cells cultured for the indicated time in KN93 were subjected to Western blots. (C) The K562 cells transduced as described in Materials and Methods with either (i) the doxycycline (DOX) inducible expression vector/transactivator harboring the full length, Lys^43 mutated, kinase dead CaMKIIγ (kdCaMKIIγ (Tet-on)) or (ii) the CaMKII shRNA generating plasmids, were cultured in liquid suspension in the presence or absence of DOX as indicated, and cell counts obtained after 48 hours. (D) Lysates from K562 cells transduced with the indicated vectors were subjected to Western blots utilizing the indicated antibodies. For lanes 2 and 4 doxycycline (DOX) treatment was for two days.
as §4

[3] = tested on: autophosphorylated CaMKIIγ in NB4 cells; test: Western blot of CaMKIIγ autophosphorylation in NB4 cells; type: cell-based, human; conditions: for activated, autophosphorylated CaMKIIγ level: single agent, ATRA 1 μM, arsenic trioxide 1 uM
Protocol: as §1, §2, §3, §4

CaMKs = conditions: inhibitors interfere with binding of Ca++/CaM to the CaMKs; cited from earlier work
[4] = tested on: Stat3 Ser727 phosphorylation in TonB210 cells; test: bcr-abl induced Stat3 Ser727 phosphorylation in TonB210.1 cells (Western blot); type: cell-based; conditions: compound added immediately prior to doxycycline, 24 hours
Protocol: FIG. 13. Stat3 is directly phosphorylated and activated by CaMKIIγ at Ser727. (A, i). Cell lysates from the indicated human leukemia cell lines were subjected to Western blots utilizing the indicated Stat3 antibodies. ii). Cell lysates from the same primary AML samples depicted in FIG. 1B were subjected to Western blots utilizing the indicated Stat3 antibodies. B). The IL-3 dependent TonB210.1 cells were deprived of IL-3 for 24 hours. The cells were then treated with the indicated compounds immediately prior to the addition of doxycycline. After an additional 24 hours cell lysates were harvested and subjected to Western blots with the indicated Stat3 antibodies. C). K562 cells were electroporated with a luciferase reporter driven by a Stat3 response element. The indicated concentrations of KN93 and the Stat 3 inhibitor, cucurbitacin I, were added and relative luciferase activity determined on cell lysates following 48 hours of culture. D, i) K562 cell lysates were immunoprecipitated with control IgG or a Stat3 antibody. The immunoprecipitates were then subjected to Western blot analysis with the indicated antibodies. ii,) A bacterial—expressed GST-Stat3 fusion protein was incubated in vitro with CaMKIIγ that had been immunoprecipitated from HL60 cells. Western blots were then performed on the reaction mixtures utilizing the indicated Stat3 antibodies. iii,). […]

[5] = tested on: autophosphorylated CaMKIIγ in TonB210.1 cells; test: bcr-abl induced CaMKII autophosphorylation in TonB210.1 cells (Western blot); type: cell-based; conditions: TonB210.1 deprived of IL-3 for 24 hours, compound added with doxycycline

Structure (SMILES)	total CaMKIIγ level [1]	activated, autophosphorylated CaMKIIγ level [1]	activated, autophosphorylated CaMKIIγ level [2]	total CaMKIIγ level [3]	activated, autophosphorylated CaMKIIγ level [3]	pIC50 (CaMKs)	bcr-abl induced Stat3 Ser727 phosphorylation [4]	autophosphorylated CaMKIIγ level ([3]; KN62 combined with relatively low concentrations of RA, five days)	bcr-abl (tet/doxycycline) restored CaMKII autophosphorylation [5]
CC1=C(/C=C/C(C)=C/C=C/C(C)=C/C(=O)O)C(C)(C)CCC1 [ATRA, All-trans retinoic acid]	essentially unchanged	marked decrease	did not exhibit any decrease	essentially unchanged	marked decrease	–	–	–	–
CN([C@@H](Cc1ccc(OS(=O)(=O)c2cccc3cnccc23)cc1)C(=O)N1CCN(c2ccccc2)CC1)S(=O)(=O)c1cccc2cnccc12 [KN-62]	did not induce any significant changes	marked reduction	–	–	little effect	6.05	blocked	reduction	inhibited in a dose dependent manner
COc1ccc(S(=O)(=O)N(CCO)c2ccccc2CN(C)C/C=C/c2ccc(Cl)cc2)cc1 [KN-93]	–	–	time dependent reduction	–	–	6.05	blocked	–	inhibited in a dose dependent manner
